These results are taken from US20240270751A1, “Pyrazolopyridinone Compounds” (BeiGene Ltd., priority 2021, published 2024).

As a reminder, the IC50 is the concentration that gives 50% inhibition.

One assay concerns the target DGKα (Homo sapiens (Human), UniProt P23743). Description: Biochemical DGK IC50 assay, DGKα ADP-Glo assay. Conditions: 7.5 nM enzyme, 140 μM ATP, 80 μM DAG. In outline:
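ADP-Glo read-out with full-length DGKα on DAG/PS lipid micelle substrate in 25 mM HEPES pH 7.0, 0.5 mM EDTA, 160 mM octyl β-D-glucopyranoside. Compound final concentrations spanned 1.55˜10000 nM or 23.3˜150000 nM.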
On the technique in general: ADP-Glo turns the ADP formed in a reaction into a luminescent signal.

The next assay has as its target DGKζ (Homo sapiens (Human), UniProt Q13574). Description: Biochemical DGK IC50 assay, DGKζ ADP-Glo assay. The note with it: 0.5 nM enzyme, 140 μM ATP, 80 μM DAG; read-out: DGKζ ADP-Glo assay IC50. In outline:
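Full-length human DGKζ, His-TEV tagged and purified from baculovirus-infected Sf9 cells, assayed by ADP-Glo with DAG/PS lipid micelle substrate prepared in 25 mM HEPES pH 7.0 with octyl glucoside. Final compound concentrations spanned 1.55–10000 nM or 23.3–150000 nM.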

Structures are written as SMILES.

Chain of DGKζ (Q13574 other isoform, or with tags, fused parts or gaps): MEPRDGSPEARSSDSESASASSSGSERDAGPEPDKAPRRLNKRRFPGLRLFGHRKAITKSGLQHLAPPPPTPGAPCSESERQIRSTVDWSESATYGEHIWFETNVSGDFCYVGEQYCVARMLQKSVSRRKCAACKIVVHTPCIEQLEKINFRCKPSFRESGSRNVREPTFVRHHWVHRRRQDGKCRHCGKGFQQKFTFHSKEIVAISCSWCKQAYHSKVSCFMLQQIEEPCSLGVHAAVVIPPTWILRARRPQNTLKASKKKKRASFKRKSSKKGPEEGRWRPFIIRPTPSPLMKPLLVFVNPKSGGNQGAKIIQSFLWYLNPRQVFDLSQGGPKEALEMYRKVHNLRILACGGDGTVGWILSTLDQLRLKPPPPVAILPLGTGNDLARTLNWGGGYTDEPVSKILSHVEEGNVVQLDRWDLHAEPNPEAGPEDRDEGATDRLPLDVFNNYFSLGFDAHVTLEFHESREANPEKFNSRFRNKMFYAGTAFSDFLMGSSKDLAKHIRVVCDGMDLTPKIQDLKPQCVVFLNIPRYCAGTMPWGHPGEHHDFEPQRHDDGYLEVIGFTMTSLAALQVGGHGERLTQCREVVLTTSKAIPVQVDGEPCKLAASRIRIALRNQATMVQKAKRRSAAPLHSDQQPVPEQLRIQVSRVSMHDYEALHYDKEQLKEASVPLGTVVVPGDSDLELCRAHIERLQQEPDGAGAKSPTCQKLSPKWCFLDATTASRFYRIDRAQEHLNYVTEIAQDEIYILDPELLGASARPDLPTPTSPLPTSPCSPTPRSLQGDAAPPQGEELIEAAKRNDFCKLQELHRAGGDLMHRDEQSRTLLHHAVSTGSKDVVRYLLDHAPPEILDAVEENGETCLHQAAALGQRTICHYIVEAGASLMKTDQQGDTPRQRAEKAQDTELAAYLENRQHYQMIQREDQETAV
Chain of DGKα (P23743 whole entry): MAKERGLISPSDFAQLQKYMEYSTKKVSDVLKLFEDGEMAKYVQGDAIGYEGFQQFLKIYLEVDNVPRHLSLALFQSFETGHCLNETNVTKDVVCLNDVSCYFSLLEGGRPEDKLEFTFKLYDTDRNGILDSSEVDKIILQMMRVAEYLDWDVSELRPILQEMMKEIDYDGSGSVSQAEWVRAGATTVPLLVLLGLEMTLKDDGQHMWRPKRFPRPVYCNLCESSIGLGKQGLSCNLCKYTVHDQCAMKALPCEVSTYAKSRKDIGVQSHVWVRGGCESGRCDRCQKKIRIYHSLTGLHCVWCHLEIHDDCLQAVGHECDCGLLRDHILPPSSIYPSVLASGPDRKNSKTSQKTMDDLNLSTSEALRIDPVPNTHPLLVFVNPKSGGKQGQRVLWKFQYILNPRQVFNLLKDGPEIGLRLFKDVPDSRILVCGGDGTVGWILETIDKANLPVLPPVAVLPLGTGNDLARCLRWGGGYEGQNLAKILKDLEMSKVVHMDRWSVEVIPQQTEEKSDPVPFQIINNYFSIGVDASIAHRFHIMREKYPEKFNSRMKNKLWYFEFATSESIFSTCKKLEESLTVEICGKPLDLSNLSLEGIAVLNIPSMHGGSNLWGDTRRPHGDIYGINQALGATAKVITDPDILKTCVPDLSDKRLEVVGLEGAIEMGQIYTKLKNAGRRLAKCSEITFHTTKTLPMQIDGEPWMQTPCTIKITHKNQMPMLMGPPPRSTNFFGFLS

Turning to `CC[C@@H]1CN(c2cc(=O)n(C)c3cn(CC#N)nc23)[C@@H](CC)CN1C(=O)c1cccc(C(F)(F)F)c1` [Compound A206, 2-(7-((2S,5R)-2,5-diethyl-4-(3-(trifluoromethyl)benzoyl)piperazin-1-yl)-4-methyl-5-oxo-4,5-dihydro-2H-pyrazolo[4,3-b]pyridin-2-yl)acetonitrile], the 50% inhibitory concentration (IC50) was found to be 2590 nM against DGKα and 2270 nM at DGKζ.
For the molecule `CC[C@H]1CN(C(C)c2ncc(OC(F)(F)F)cc2F)[C@H](CC)CN1c1cc(=O)n(C)c2cn(CC#N)nc12` (single isomer, unassigned) [Compound A362b], the half-maximal inhibitory concentration (IC50) came to 33 nM at DGKα and 300 nM on DGKζ.
In the same order, the values of `CC#CCn1cc2c(n1)c(N1C[C@@H](CC)N(C(C)c3ccc(C(F)(F)F)cc3F)C[C@@H]1CC)cc(=O)n2C` (single isomer, unassigned) [Compound A334b] are 893 nM and above 10000 nM.
Taken in the same sequence, the figures for `CCOc1cc(F)ccc1C(C)N1C[C@H](CC)N(c2cc(=O)n(C)c3cn(CC#N)nc23)C[C@H]1CC` (some centres unmarked) [Compound A141] were 6630 nM and 696 nM.
Taken in the same sequence, the figures for `CC[C@H]1CN(C(C)c2cnc(C)cc2C(F)(F)F)[C@H](CC)CN1c1cc(=O)n(C)c2cn(CC#N)nc12` (some centres unmarked) [Compound A235] were above 10000 nM and 5380 nM.
On to `CC[C@H]1CN(C(C)c2nc3cc(C(F)(F)F)ccc3n2CC)[C@H](CC)CN1c1cc(=O)n(C)c2cn(CC#N)nc12` (single isomer, unassigned) [Compound A203a], for which the 50% inhibitory concentration (IC50) was above 10000 nM against DGKα and 2210 nM on DGKζ.
In the case of `CC[C@H]1CN(C(C)c2ccc(F)cn2)[C@H](CC)CN1c1cc(=O)n(C)c2cn(CC#N)nc12` (some centres unmarked) [Compound A74], the IC50 against DGKα is 3.8 nM; at DGKζ, 830 nM.
In the same order, the values of `CC[C@H]1CN(C(C)c2ccc3nc(O)cnc3c2)[C@H](CC)CN1c1cc(=O)n(C)c2cn(CC#N)nc12` (single isomer, unassigned) [Compound A282a] are 182 nM and 5350 nM.
Taken in the same sequence, the figures for `CC[C@H]1CN(C(C)c2ccc(C)c(C)n2)[C@H](CC)CN1c1cc(=O)n(C)c2cn(CC#N)nc12` (some centres unmarked) [Compound A363] were 166 nM and 55 nM.
In the same order, the values of `CC[C@H]1CN(C(C)c2ccc(OC(C)C)cc2)[C@H](CC)CN1c1cc(=O)n(C)c2cn(CC#N)nc12` (some centres unmarked) [Compound A160] are 52 nM and 247 nM.
For the molecule `CC(c1ccc2ncc(C3CC3)nc2c1)N1C[C@H](C)N(c2cc(=O)n(C)c3cn(CC#N)nc23)C[C@H]1C` (stereo partly drawn) [Compound A310, 2-(7-((2S,5R)-4-(1-(3-cyclopropylquinoxalin-6-yl)ethyl)-2,5-dimethylpiperazin-1-yl)-4-methyl-5-oxo-4,5-dihydro-2H-pyrazolo[4,3-b]pyridin-2-yl)acetonitrile], the concentration for half-maximal inhibition (IC50) was 94700 nM on DGKα and 127 nM at DGKζ.
In the same order, the values of `CC[C@H]1CN(C(C)c2ccc(C(F)F)cn2)[C@H](CC)CN1c1cc(=O)n(C)c2cn(CC#N)nc12` (single isomer, unassigned) [Compound A347b] are 8 nM and 223 nM.
Taken in the same sequence, the figures for `CC[C@H]1CN(C(C)c2ccc3ccncc3c2)[C@H](CC)CN1c1cc(=O)n(C)c2cn(CC#N)nc12` (stereo partly drawn) [Compound A62, 2-(7-((2S,5R)-2,5-diethyl-4-(1-(isoquinolin-7-yl)ethyl)piperazin-1-yl)-4-methyl-5-oxo-4,5-dihydro-2H-pyrazolo[4,3-b]pyridin-2-yl)acetonitrile] were 40 nM and 48 nM.
With `CC[C@H]1CN(C(C)c2ccc(C)cn2)[C@H](CC)CN1c1cc(=O)n(C)c2cn(CC#N)nc12` (some centres unmarked) [Compound A346], the values for the IC50 on DGKα and at DGKζ were 29 nM and 556 nM, respectively.
Taken in the same sequence, the figures for `CC(c1ccc2c(c1)C(F)(F)CCO2)N1C[C@H](C)N(c2cc(=O)n(C)c3cn(CC#N)nc23)C[C@H]1C` (stereo partly drawn) [Compound A331, 2-(7-((2S,5R)-4-(1-(4,4-difluorochroman-6-yl)ethyl)-2,5-dimethylpiperazin-1-yl)-4-methyl-5-oxo-4,5-dihydro-2H-pyrazolo[4,3-b]pyridin-2-yl)acetonitrile] were 31800 nM and 46 nM.
Taken in the same sequence, the figures for `CC[C@H]1CN(C(C)c2ccc(C(C)(C)C#N)cn2)[C@H](CC)CN1c1cc(=O)n(C)c2cn(CC#N)nc12` (some centres unmarked) [Compound A386] were 689 nM and 418 nM.
Take `CC#CCn1cc2c(n1)c(N1C[C@@H](CC)N(C(C)c3ccc4c(c3)OC(F)(F)O4)C[C@@H]1C)cc(=O)n2C` (single isomer, unassigned) [Compound A392b]: the figures for the IC50 against DGKα and on DGKζ were 1070 nM and above 10000 nM, respectively.
In the same order, the values of `CC[C@@H]1CN(c2cc(=O)n(C)c3cn(CC#N)nc23)[C@@H](C)CN1C(C)c1ccc2nccnc2c1` (single isomer, unassigned) [Compound A97b] are 5120 nM and 1610 nM.
In the same order, the values of `CC[C@H]1CN(C(C)c2ccn3ncnc3c2)[C@H](CC)CN1c1cc(=O)n(C)c2cn(CC#N)nc12` (some centres unmarked) [Compound A49] are 130 nM and 200 nM.
Consider `CC[C@H]1CN(C(C)c2ccc(C)cc2)[C@H](CC)CN1c1cc(=O)n(C)c2cn(CC#N)nc12` (single isomer, unassigned) [Compound A127a], for which the concentration for half-maximal inhibition (IC50) came out at 37 nM against DGKα and 84 nM at DGKζ.
As to `CC[C@H]1CN(C(C)c2ccc3cccnc3c2)[C@H](CC)CN1c1cc(=O)n(C)c2cn(CC#N)nc12` (some centres unmarked) [Compound A61], the results for the 50% inhibitory concentration (IC50) on DGKα and on DGKζ were 177 nM and 8.6 nM, respectively.
In the same order, the values of `CC[C@H]1CN(C(C)c2cc3ccccc3cn2)[C@H](CC)CN1c1cc(=O)n(C)c2cn(CC#N)nc12` (some centres unmarked) [Compound A58] are 7.3 nM and 2.8 nM.
`CC[C@H]1CN(C(C)c2ccncc2)[C@H](CC)CN1c1cc(=O)n(C)c2cn(CC#N)nc12` (some centres unmarked) [Compound A86]: the 50% inhibitory concentration (IC50) stood at 22 nM against DGKα and 1940 nM at DGKζ.
In the same order, the values of `CC[C@H]1CN(C(C)c2c(OC)cc(F)cc2OC)[C@H](CC)CN1c1cc(=O)n(C)c2cn(CC#N)nc12` (some centres unmarked) [Compound A94] are 9130 nM and 98 nM.
Taken in the same sequence, the figures for `CC[C@H]1CN(C(C)c2cnc(C)n2CC)[C@H](CC)CN1c1cc(=O)n(C)c2cn(CC#N)nc12` (some centres unmarked) [Compound A219] were above 10000 nM and above 10000 nM.
Taken in the same sequence, the figures for `CC[C@H]1CN([C@@H](C)c2nc3ncccc3n2CC)[C@H](CC)CN1c1cc(=O)n(C)c2cn(CC#N)nc12` (single isomer, unassigned) [Compound A215b] were above 10000 nM and 1140 nM.
As for `CC[C@H]1CN(C(C)c2ccncc2OC)[C@H](CC)CN1c1cc(=O)n(C)c2cn(CC#N)nc12` (some centres unmarked) [Compound A91], the IC50 was above 10000 nM against DGKα and 533 nM on DGKζ.
Taken in the same sequence, the figures for `C[C@@H]1CN(c2cc(=O)n(C)c3cn(CC#N)nc23)[C@@H](C)CN1C(c1ccc2nccnc2c1)C(F)F` (stereo partly drawn) [Compound A262, 2-(7-((2S,5R)-4-(2,2-difluoro-1-(quinoxalin-6-yl)ethyl)-2,5-dimethylpiperazin-1-yl)-4-methyl-5-oxo-4,5-dihydro-2H-pyrazolo[4,3-b]pyridin-2-yl)acetonitrile] were above 10000 nM and 150 nM.
